Data on twelve compounds can be found in patent US20240116942A1, “SELECTIVE CDK 4/6 INHIBITOR CANCER THERAPEUTICS” (LUNELLA BIOTECH, INC., priority 2020, published 2024).

Molecules are shown by their SMILES.

For one assay, the system named is MCF7 cells. In words: mammosphere assay. Particulars: compared to Trilaciclib. The format is cell-based. The source says:
Moreover, CSCs are strikingly resilient and highly resistant to cellular stress, which allows them to undergo anchorage-independent growth, especially under conditions of low-attachment. As a consequence, they form 3D spheroids, which retain the properties of CSCs and stem cell progenitors. In contrast, when subjected to growth in suspension, most “bulk” cancer cells die, via anoikis—a specialized type of apoptosis. […] Therefore, 3D spheroid formation is a functional read-out for stemness in epithelial cancer cells and allows one to enrich for a population of epithelioid cells with a stem-like phenotype. These 3D spheroids are also known as mammospheres when they are prepared using breast cancer cells, such as MCF7, among others.
For the compound `CCCCCCCCCCCCCC(=O)N1CCN(c2ccc(Nc3ncc4cc5n(c4n3)C3(CCCCC3)CNC5=O)nc2)CC1` [formula [2]], the “inhibition of MCF7 cells in the mammosphere assay” value is “remarkably improved inhibition”.

As to `CCCCCCCCCCCCCCCC(=O)CCN1CCN(c2ccc(Nc3ncc4cc5n(c4n3)C3(CCCCC3)CNC5=O)nc2)CC1` [formula [3]], the “inhibition of MCF7 cells in the mammosphere assay” value is on record as “remarkably improved inhibition”.

The next assay deals with CSCs (3D tumor sphere formation).
Assay: not given
Particulars: mitochondrial inhibitors; background statement; cited from earlier work.
On to `Cc1n[nH]c(C)c1Cc1sc2c(c1C(=O)N1C[C@H](O)CO1)c(=O)n(C)c(=O)n2CC(C)C` [AR-C155858], for which the “3D tumor sphere formation” value is “successfully blocked”.

As to `O=C(/C=C/c1ccc(O)c(O)c1)OCCc1ccccc1` [CAPE], the “3D tumor sphere formation” value was “successfully blocked”.

For `CCCCC[C@H](CC(=O)NO)C(=O)N[C@H](C(=O)N1CCC[C@H]1CO)C(C)C` [actinonin], the “3D tumor sphere formation” value is reported as “successfully blocked”.

For the compound `CC[C@H]1OC(=O)[C@H](C)[C@@H](O[C@H]2C[C@@](C)(OC)[C@@H](O)[C@H](C)O2)[C@H](C)[C@@H](O[C@@H]2O[C@H](C)C[C@H](N(C)C)[C@H]2O)[C@](C)(O)C[C@@H](C)CN(C)[C@H](C)[C@@H](O)[C@]1(C)O` [azithromycin], the “3D tumor sphere formation” value is on record as “successfully blocked”.

Consider `COc1nc2ccc(Br)cc2cc1[C@@H](c1ccccc1)[C@@](O)(CCN(C)C)c1cccc2ccccc12` [bedaquiline], for which the “3D tumor sphere formation” value is “successfully blocked”.

As to `COc1ccc2cc3[n+](cc2c1OC)CCc1cc2c(cc1-3)OCO2` [berberine], the “3D tumor sphere formation” value is recorded as “successfully blocked”.

Consider `COc1ccc([C@@H]2CC(=O)c3c(O)cc(O[C@@H]4O[C@H](COC(=O)CC(C)(O)CC(=O)O)[C@@H](O)[C@H](O)[C@H]4O[C@@H]4O[C@@H](C)[C@H](O)[C@@H](O)[C@H]4O)cc3O2)cc1O` (stereo partly drawn) [brutieridin], for which the “3D tumor sphere formation” value was “successfully blocked”.

As to `C[C@@H]1O[C@@H](O[C@@H]2[C@@H](Oc3cc(O)c4c(c3)O[C@H](c3ccc(O)cc3)CC4=O)O[C@@H](COC(=O)C[C@@](C)(O)CC(=O)O)[C@H](O)[C@H]2O)[C@@H](O)[C@H](O)[C@H]1O` [melitidin], the “3D tumor sphere formation” value is recorded as “successfully blocked”.

`CC[C@H]1/C=C/C=C/C[C@@H](C)[C@H](O)[C@@](C)(O)C(=O)[C@@H](C)[C@H](O)[C@@H](C)C(=O)[C@@H](C)[C@H](O)[C@@H](C)/C=C/C(=O)O[C@@H]2[C@H](C)[C@H](CC1)O[C@]1(CC[C@H](C)[C@H](C[C@@H](C)O)O1)[C@H]2C` [oligomycin]: the “3D tumor sphere formation” value was “successfully blocked”.

Consider `CN(C)c1cc(NC(=O)CNC(C)(C)C)c(O)c2c1C[C@H]1C[C@H]3[C@H](N(C)C)C(O)=C(C(N)=O)C(=O)[C@@]3(O)C(O)=C1C2=O` [tigecycline], for which the “3D tumor sphere formation” value was “successfully blocked”.
